Assay: Stability of the crystalline polymorphic forms of bifeprunox mesylate
Assay type: physicochemical
Details: for thermodynamic stability of the polymorphic form: solid crystalline form, found during further investigations, monomethanesulfonate

Row | conversion of the polymorphic form (even at high atmospheric humidity or higher temperature) | thermodynamic stability of the polymorphic form | Compound
1 | does not undergo conversion | more thermodynamically stable | O=c1[nH]c2cccc(N3CCN(Cc4cccc(-c5ccccc5)c4)CC3)c2o1 [polymorph α, 7-[4-([1,1′-biphenyl]-3-ylmethyl)-1-piperazinyl]-2(3H)-benzoxazolone monomethanesulfonate]
2 | – | metastable | O=c1[nH]c2cccc(N3CCN(Cc4cccc(-c5ccccc5)c4)CC3)c2o1 [polymorph γ, 7-[4-([1,1′-biphenyl]-3-ylmethyl)-1-piperazinyl]-2(3H)-benzoxazolone monomethanesulfonate]
3 | – | metastable | O=c1[nH]c2cccc(N3CCN(Cc4cccc(-c5ccccc5)c4)CC3)c2o1 [polymorph δ, 7-[4-([1,1′-biphenyl]-3-ylmethyl)-1-piperazinyl]-2(3H)-benzoxazolone monomethanesulfonate]
